*1 amine or outer side, *2 acyl side, *3 side chain or, on linkers, in order; H or OH if unused. Where a SMILES comes first, the peptide text is derived from it. CO = O=C([*:1])[*:2]
What follows are compounds tested against T1, alkaline proteinase K-16 from Bacillus sp. KSM-K16 (Shouchella clausii, UniProt Q99405). Conditions: not given.
T1 construct: made in house; host or cells: Bacillus sp; KSM-K16 (own producer strain, culture)
T1 sequence (Q99405 112-380): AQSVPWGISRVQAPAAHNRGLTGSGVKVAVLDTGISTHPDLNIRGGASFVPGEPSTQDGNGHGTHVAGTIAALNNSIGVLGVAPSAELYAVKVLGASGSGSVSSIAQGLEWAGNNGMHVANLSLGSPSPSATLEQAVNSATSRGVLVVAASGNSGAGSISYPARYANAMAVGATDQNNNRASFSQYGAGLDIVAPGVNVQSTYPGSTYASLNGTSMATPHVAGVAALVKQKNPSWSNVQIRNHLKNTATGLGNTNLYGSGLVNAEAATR
Assay type: biochemical

| Compound | Effect of inhibitor on activity (in words) |
| --- | --- |
| CC(C)[C@H](NC(=O)[C@H](CCCNC(=N)N)NC(=O)N[C@@H](Cc1ccccc1)C(=O)O)C(=O)N[C@H](C=O)CCCNC(=N)N [Antipain] ({Phe-CO}-Arg-Val-Arg-aldehyde) | not inhibited |
| O=C(O)CN(CCN(CC(=O)O)CC(=O)O)CC(=O)O [EDTA, Ethylenediaminetetraacetic acid] | not inhibited |
| O=S(=O)(F)Cc1ccccc1 [PMSF, Phenylmethanesulfonyl fluoride] | inhibited |
| chymostatin | inhibited |

Same assay, conditions: pH 7

| Compound | Residual activity (%) |
| --- | --- |
| O=S(=O)(F)Cc1ccccc1 [PMSF, Phenylmethanesulfonyl fluoride] | 1.5% |
| chymostatin | 34% |
